# Results reported in US7893045B2, “Methods for treating lymphomas in certain patient populations and screening patients for said therapy” (Celgene Corporation, priority 2007, dated 2011).
# Experiments:
# [1] = system: relapsed and refractory aggressive non-Hodgkin's lymphoma (NHL); experiment: Clinical Study 1: Phase II oral lenalidomide monotherapy in relapsed and refractory aggressive NHL; format: in vivo, human; details: for Median progression-free survival: FIG. 1
# Procedure: A multi-center, open-label, Phase II study was conducted in patients with relapsed and refractory aggressive non-Hodgkin's lymphoma (NHL). The trial was designed for oral monotherapy with 3-(4-amino-1-oxo-1,3-dihydro-isoindol-2-yl)-piperidin-2,6-dione (Revlimid® or lenalidomide) in 49 patients with relapsed and refractory aggressive NHL following one or more prior treatment regimen with measurable disease. Patients in the study received lenalidomide in an amount of 25 mg orally once daily for days one to 21 in a 28-day cycle and continued therapy for 52 weeks as tolerated or until disease progression. A patient who achieved a complete response during the 52 week period was to receive two additional cycles of treatment prior to discontinuing treatment and entering the follow-up phase.
# The patients who had received a median of 4 prior treatments (range: 1-7 prior treatments), were administered with lenalidomide in an amount of 25 mg orally once daily for 21 days in the treatment cycle of 28 days. Of the 49 patients, 26 had diffuse large cell lymphoma, 15 had mantle cell lymphoma, five patients had follicular lymphoma, and three had transformed lymphoma. Median time from diagnosis was 2.7 years (range 0.4-32) and patients had received a median of 4 (range […]) prior drug regimens for NHL. Ninety-three percent of the patients had received prior rituximab and 63% of the patients were rituximab refractory.
# aggressive NHL [2] = experiment: Clinical Study 2: lenalidomide monotherapy in aggressive NHL; format: in vivo, human
# Procedure: In a separate clinical study, 86 patients received at least 25 mg of lenalidomide once daily on Days 1-21 every 28 days and continued therapy as tolerated or until disease progression. Forty-eight of these patients were evaluable for response assessment (Table 3). The median age was 65 years. The most common histology was DLBCL (63%). The median time from diagnosis to lenalidomide treatment was 2 years. Patients received a median of 4 prior treatment regimens for NHL. Median time from last rituximab treatment was 297 days. […] Ninety-six percent of the patients had received prior rituximab.
# aggressive NHL [3] = experiment: Study 1 and 2 taken together: response by predictive factors; format: in vivo, human
# [4] = system: peripheral T-cell lymphomas (PTCL); experiment: Clinical Study 3: Phase II lenalidomide for peripheral T-cell lymphomas; format: in vivo; details: about 25 mg orally daily for 21 days followed by 7 days of rest; ten patients
# Procedure: A multi-center, open label, phase II study was conducted to evaluate the efficacy of 3-(4-amino-1-oxo-1,3-dihydro-isoindol-2-yl)-piperidin-2,6-dione (lenalidomide) for peripheral T-cell lymphomas (PTCL). Patients with relapsed or refractory disease were eligible, as well as patients who had not previously had systemic therapy but who were ineligible for standard curative chemotherapy regimens due to comorbid illness. Each cycle (28 days) of treatment comprises administration of about 25 mg of 3-(4-amino-1-oxo-1,3-dihydro-isoindol-2-yl)-piperidin-2,6-dione (lenalidomide) given orally daily for 21 days followed by 7 days of rest, until disease progression, death or unacceptable toxicity.
# Ten (9 males and 1 female) patients were enrolled. Median age of participants was 56 years (range, 42-76 years). Histologies of the patients included PTCL unspecified (n=4), angioimmunoblastic T-cell lymphoma (n=4), anaplastic large cell lymphoma (n=1), and gamma/delta T-cell lymphoma (n=1). Median number of prior lines of systemic therapy was one (range, 0-3). Median number of cycles was two (range, 1-8).
# [5] = Aggressive, n=49, 25 mg orally once daily days 1-21 of 28-day cycle
# [6] = DLBCL, n=26, 25 mg daily days 1-21 of 28
# [7] = FCL, n=5, 25 mg daily days 1-21 of 28
# [8] = MCL, n=15, 25 mg daily days 1-21 of 28
# [9] = TSF, n=3, 25 mg daily days 1-21 of 28
# [10] = of fourteen patients with SD at cycle 2
# [11] = the four rituximab naïve patients
# [12] = Aggressive NHL, 48 evaluable patients, at least 25 mg once daily Days 1-21 every 28 days
# [13] = Diffuse large B-cell, 30 patients
# [14] = Follicular center lymphoma grade 3, 1 patient
# [15] = Mantle cell lymphoma, 14 patients
# [16] = Transformed lymphoma, 3 patients
# [17] = Study 1 and 2, time from rituximab <230 days, 40 patients
# [18] = Study 1 and 2, time from rituximab ≧230 days, 57 patients
# [19] = Study 1 and 2, tumor burden <50 cm^2, 66 patients
# [20] = Study 1 and 2, tumor burden ≧50 cm^2, 29 patients
structure (smiles),measurement,setting,value
"Nc1cccc2c1CN(C1CCC(=O)NC1=O)C2=O (centres unmarked) [lenalidomide, 3-(4-amino-1-oxo-1,3-dihydro-isoindol-2-yl)-piperidine-2,6-dione]",response to lenalidomide,[1]; <230 days since last rituximab therapy,6%
same,response to lenalidomide,[1]; >=230 days since last rituximab therapy,52%
same,"CR, complete response (patients)",[1]; [5],2
same,"CRu, complete response unconfirmed (patients)",[1]; [5],4
same,"PD, progressive disease (patients)",[1]; [5],21
same,"PR, partial response (patients)",[1]; [5],11
same,"RR, response rate",[1]; [5],35%
same,"CR, complete response (patients)","[1]; DLBCL, diffuse large B-cell lymphoma, n=26, 25 mg daily days 1-21 of 28",1
same,"CRu, complete response unconfirmed (patients)",[1]; [6],2
same,"PD, progressive disease (patients)",[1]; [6],14
same,"PR, partial response (patients)",[1]; [6],2
same,"RR, response rate",[1]; [6],19%
same,"CR, complete response (patients)","[1]; FCL, follicular-center lymphoma, n=5, 25 mg daily days 1-21 of 28",0
same,"CRu, complete response unconfirmed (patients)",[1]; [7],1
same,"PD, progressive disease (patients)",[1]; [7],2
same,"PR, partial response (patients)",[1]; [7],2
same,"RR, response rate",[1]; [7],60%
same,"CR, complete response (patients)","[1]; MCL, mantle cell lymphoma, n=15, 25 mg daily days 1-21 of 28",1
same,"CRu, complete response unconfirmed (patients)",[1]; [8],1
same,"PD, progressive disease (patients)",[1]; [8],5
same,"PR, partial response (patients)",[1]; [8],6
same,"RR, response rate",[1]; [8],53%
same,"CRu, complete response unconfirmed (patients)",[1]; [9],0
same,"PD, progressive disease (patients)",[1]; [9],0
same,"PR, partial response (patients)",[1]; [9],1
same,"RR, response rate",[1]; [9],33%
same,"CR, complete response (patients)","[1]; TSF, transformed lymphoma, n=3, 25 mg daily days 1-21 of 28",0
same,response to lenalidomide,[1]; absolute lymphocyte count <=0.6×10^9/L,9%
same,response to lenalidomide,[1]; absolute lymphocyte count >0.6×10^9/L,42%
same,patients with initial PR at 2 cycles who went on to CR/CRu with continued treatment,[1]; continued treatment,four
same,Response Rate,"[1]; favorable values of disease burden, absolute lymphocyte count and time since last rituximab (n=23)",65%
same,patients with stable disease at the first (cycle 2) assessment,"[1]; first assessment, cycle 2",Fourteen
same,response to lenalidomide,[1]; largest tumor lesion <=4.5 cm,55%
same,response to lenalidomide,[1]; largest tumor lesion >4.5 cm,5%
same,patients with SD or PR at first assessment who improved their response with continued treatment,[1]; of 28 patients,seven
same,share of patients with SD or PR at first assessment who improved their response,[1]; of 28 patients,25%
same,patients with an objective response,[1]; of 49 patients,Seventeen
same,patients with SD at first assessment who went on to exhibit a response with continued treatment,[1]; [10],three
same,share of patients with SD at first assessment who went on to exhibit a response,[1]; [10],21%
same,response to lenalidomide,[1]; patients not refractory to rituximab,31%
same,response to lenalidomide,[1]; patients refractory to rituximab,30%
same,Median progression-free survival,[1]; patients with favorable prognostic values,7.5 months
same,Median progression-free survival,[1]; patients with poor prognostic factors,1.9 months
same,patients with CR,[1]; [11],two
same,patients with PR,[1]; [11],1
same,patients with SD,[1]; [11],1
same,response to lenalidomide,[1]; tumor burden <50 cm^2,52%
same,response to lenalidomide,[1]; tumor burden >=50 cm^2,0%
same,Response Rate,[1]; unfavorable values for these prognostic values (n=26),8%
same,Median progression-free survival,"[1]; whole group (all patients), Kaplan-Meier",3.7 months
same,response to lenalidomide,aggressive NHL [2]; <230 days from rituximab to lenalidomide treatment,5%
same,"ORR, overall response rate",aggressive NHL [2]; [12],27%
same,"PD, progressive disease (patients)",aggressive NHL [2]; [12],25
same,"PR, partial response (patients)",aggressive NHL [2]; [12],12
same,"CR, complete response (patients)",aggressive NHL [2]; [13],1
same,"ORR, overall response rate",aggressive NHL [2]; [13],20%
same,"PD, progressive disease (patients)",aggressive NHL [2]; [13],19
same,"PR, partial response (patients)",aggressive NHL [2]; [13],5
same,"CR, complete response (patients)",aggressive NHL [2]; [14],0
same,"ORR, overall response rate",aggressive NHL [2]; [14],100%
same,"PD, progressive disease (patients)",aggressive NHL [2]; [14],0
same,"PR, partial response (patients)",aggressive NHL [2]; [14],1
same,"CR, complete response (patients)",aggressive NHL [2]; [15],0
same,"ORR, overall response rate",aggressive NHL [2]; [15],36%
same,"PD, progressive disease (patients)",aggressive NHL [2]; [15],9
same,"PR, partial response (patients)",aggressive NHL [2]; [15],5
same,"CR, complete response (patients)",aggressive NHL [2]; [16],0
same,"ORR, overall response rate",aggressive NHL [2]; [16],33%
same,"PD, progressive disease (patients)",aggressive NHL [2]; [16],1
same,"PR, partial response (patients)",aggressive NHL [2]; [16],1
same,ORR,aggressive NHL [2]; favorable values for both tumor burden and time from rituximab (N=19),53%
same,response to lenalidomide,aggressive NHL [2]; tumor burden <50 cm^2,33%
same,response to lenalidomide,aggressive NHL [2]; tumor burden ≧50 cm^2,14%
same,ORR,aggressive NHL [2]; unfavorable values (N=29),10%
same,response to lenalidomide,aggressive NHL [2]; ≧230 days from rituximab to lenalidomide treatment,46%
same,Responders,"aggressive NHL [3]; Study 1 and 2, Favorable = tumor burden <50 cm^2 and time since last rituximab ≧230 days, 43 patients",26
same,Response Rate (ORR),"aggressive NHL [3]; Study 1 and 2, Favorable = tumor burden <50 cm^2 and time since last rituximab ≧230 days, N=43",60%
same,Responders,"aggressive NHL [3]; Study 1 and 2, Unfavorable = tumor burden ≧50 cm^2 and/or time since last rituximab <230 days, 54 patients",4
same,Response Rate (ORR),"aggressive NHL [3]; Study 1 and 2, Unfavorable = tumor burden ≧50 cm^2 and/or time since last rituximab <230 days, N=54",7.4%
same,Responders,aggressive NHL [3]; [17],2
same,Response Rate,aggressive NHL [3]; [17],5%
same,Responders,aggressive NHL [3]; [18],28
same,Response Rate,aggressive NHL [3]; [18],49%
same,Responders,aggressive NHL [3]; [19],28
same,Response Rate,aggressive NHL [3]; [19],42%
same,Responders,aggressive NHL [3]; [20],2
same,Response Rate,aggressive NHL [3]; [20],6.9%
same,duration of response,aggressive NHL [3]; Study 1 and 2 taken together,approximately 6 months
same,Response Rate,"aggressive NHL [3]; Study 1 and 2 taken together, all patients",31%
same,side effects,"aggressive NHL [3]; Study 1 and 2 taken together, monotherapy in aggressive NHL",manageable hematological side effects
same,efficacy in peripheral T-cell lymphomas,[4],effective in treating peripheral T-cell lymphomas
same,tolerability of therapy,[4],generally been well tolerated
